Measured values reported in US8431704B2, “Quinoline or isoquinoline substituted P2X7 antagonists” (Janssen Pharmaceutica NV, priority 2008, dated 2013).

Molecular target: T1, P2X7 (Homo sapiens, UniProt Q99572)
T1 construct: endogenous in cells; host or cells: THP-1 human monocytic cell line
T1 sequence (Q99572 1-595): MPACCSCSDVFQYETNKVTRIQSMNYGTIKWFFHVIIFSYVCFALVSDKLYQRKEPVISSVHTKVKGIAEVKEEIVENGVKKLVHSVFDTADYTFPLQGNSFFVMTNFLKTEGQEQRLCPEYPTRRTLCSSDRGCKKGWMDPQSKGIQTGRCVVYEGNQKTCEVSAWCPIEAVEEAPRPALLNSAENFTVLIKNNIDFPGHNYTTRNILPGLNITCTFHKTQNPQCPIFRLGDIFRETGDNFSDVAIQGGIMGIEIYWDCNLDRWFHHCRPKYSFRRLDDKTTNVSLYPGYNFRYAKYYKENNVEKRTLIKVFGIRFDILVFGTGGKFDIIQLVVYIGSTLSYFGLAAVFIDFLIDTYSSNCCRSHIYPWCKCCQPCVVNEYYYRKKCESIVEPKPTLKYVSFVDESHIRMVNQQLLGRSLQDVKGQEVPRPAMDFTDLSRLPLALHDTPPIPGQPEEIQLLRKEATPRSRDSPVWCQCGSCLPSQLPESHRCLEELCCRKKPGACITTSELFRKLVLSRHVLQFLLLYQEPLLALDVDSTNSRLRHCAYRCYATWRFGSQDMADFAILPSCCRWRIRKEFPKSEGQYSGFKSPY
Assay: THP-1 YoPro uptake assay (BzATP-stimulated Yo-Pro-1 uptake)
Assay type: cell-based
Conditions: Table F-10, THP-1 cells, read-out: mean pIC50 values for P2X7 antagonism (converted)
Protocol: The human monocytic cell line THP-1 was grown as a suspension culture in RPMI medium supplemented with 10% fetal bovine serum, penicillin/streptomycin (50 units/mL), 2 mM L-glutamine, and 20 μM 2-mercaptoethanol. Cells were maintained at a density below 0.5 million per mL. On the day of the assay, cells were washed twice with assay buffer, and then resuspended at 2 million per mL in assay buffer containing 2 μM Yo-Pro-1 (Invitrogen). The assay buffer contained (in mM): 280 sucrose, 5 KCl, 10 glucose, 10 HEPES, 5 N-methyl-D-glucamine. The cells were added at 200 k/well into poly-D-lysine-coated black-walled 96-well plates (Biocoat, Becton-Dickinson). Test compounds were dissolved in DMSO, and then added at the test concentration to each well of the 96-well plate. Concentration dependence of block was determined by exposing each well of cells in duplicate rows of a 96-well plate to a serial dilution of test compound. The concentration series usually started at 10 μM with a three-fold decrement in concentration. The final DMSO concentration seen by the cells was less than 0.5%. Cells were incubated with test compounds for 30 minutes at 37° C. A background reading was taken using a Gemini SpectraMax with 490 nm excitation and 530 nm emission. […] After incubation for 60 minutes at 37° C., an endpoint read was taken in the SpectraMax plate reader. The amount of block of the response was determined by comparing the fluorescence intensity in each well to the average of control wells on each plate. The control wells contained either a known antagonist of P2X7 (positive controls) or a concentration of DMSO equal to that in the test wells. Data were analyzed using a nonlinear regression program (Origin, OriginLab, MA). Results are reported as the −log of the IC50 (pIC50).

IC50 [nM] | SMILES
22.4 | O=C(NCC(c1cnc(C(F)(F)F)nc1)N1CCOCC1)c1c(Cl)ccc2nc(NCCCO)ccc12 (centres unmarked) [Compound 430]
100000 | O=C(NCC(c1cnc(C(F)(F)F)nc1)N1CCOCC1)c1c(Cl)ccc2nc(NCC3CCCO3)ccc12 (centres unmarked) [Compound 432]
11.5 | CNCCCN(C)c1ccc2c(C(=O)NCC(c3cnc(C(F)(F)F)nc3)N3CCOCC3)c(Cl)ccc2n1 (centres unmarked) [Compound 433]
14.5 | O=C(NCC(c1cnc(C(F)(F)F)nc1)N1CCOCC1)c1c(Cl)ccc2nc(NCc3ccccc3)ccc12 (centres unmarked) [Compound 434]
77.6 | O=C(NCC(c1cnc(C(F)(F)F)nc1)N1CCOCC1)c1c(Cl)ccc2nc(NCc3cccnc3)ccc12 (centres unmarked) [Compound 435]
155 | Cc1ccccc1CNc1ccc2c(C(=O)NCC(c3cnc(C(F)(F)F)nc3)N3CCOCC3)c(Cl)ccc2n1 (centres unmarked) [Compound 437]
22.9 | O=C(NCC(c1cnc(C(F)(F)F)nc1)N1CCOCC1)c1c(Cl)ccc2nc(NCc3ccc(F)cc3)ccc12 (centres unmarked) [Compound 438]
40.7 | O=C(NCC(c1cnc(C(F)(F)F)nc1)N1CCOCC1)c1c(Cl)ccc2nc(NCCN3CCOCC3)ccc12 (centres unmarked) [Compound 439]
37.2 | O=C(NCC(c1cnc(C(F)(F)F)nc1)N1CCOCC1)c1c(Cl)ccc2nc(NCc3ccc4c(c3)OCO4)ccc12 (centres unmarked) [Compound 440]
25.7 | O=C(NCC(c1cnc(C(F)(F)F)nc1)N1CCOCC1)c1c(Cl)ccc2nc(N3CCCNCC3)ccc12 (centres unmarked) [Compound 444]
309 | O=C(NCC(c1cnc(C(F)(F)F)nc1)N1CCOCC1)c1c(Cl)ccc2nc(NCc3cc(F)cc(F)c3)ccc12 (centres unmarked) [Compound 447]
19.5 | O=C(NCC(c1cnc(C(F)(F)F)nc1)N1CCOCC1)c1c(Cl)ccc2nc(N3CCC(O)CC3)ccc12 (centres unmarked) [Compound 452]
20.9 | CC1CN(c2ccc3c(C(=O)NCC(c4cnc(C(F)(F)F)nc4)N4CCOCC4)c(Cl)ccc3n2)CCO1 (centres unmarked) [Compound 453]
19.1 | C[C@H]1CCCN(c2ccc3c(C(=O)NCC(c4cnc(C(F)(F)F)nc4)N4CCOCC4)c(Cl)ccc3n2)C1 (some centres unmarked) [Compound 454]
25.7 | O=C(NCC(c1cnc(C(F)(F)F)nc1)N1CCOCC1)c1c(Cl)ccc2nc(N3CCN(CCO)CC3)ccc12 (centres unmarked) [Compound 455]
7.24 | CC(CO)Nc1ccc2c(C(=O)NCC(c3cnc(C(F)(F)F)nc3)N3CCOCC3)c(Cl)ccc2n1 (centres unmarked) [Compound 456]

IC50 [nM] | SMILES
0.955 | CCC(C)Nc1ccc2c(C(=O)NCC(c3cnc(C(F)(F)F)nc3)N3CCOCC3)c(Cl)ccc2n1 (centres unmarked) [Compound 457]
3.02 | O=C(NCC(c1cnc(C(F)(F)F)nc1)N1CCOCC1)c1c(Cl)ccc2nc(N3CC(O)C3)ccc12 (centres unmarked) [Compound 458]
2.63 | O=C(NCC(c1cnc(C(F)(F)F)nc1)N1CCOCC1)c1c(Cl)ccc2nc(N3CCCOCC3)ccc12 (centres unmarked) [Compound 459]
8.91 | O=C(NCC(c1cnc(C(F)(F)F)nc1)N1CCOCC1)c1c(Cl)ccc2nc(N3C[C@@H]4CN[C@H]3C4)ccc12 (some centres unmarked) [Compound 460]
9.12 | CCN(CC)c1ccc2c(C(=O)NCC(c3cnc(C(F)(F)F)nc3)N3CCOCC3)c(Cl)ccc2n1 (centres unmarked) [Compound 462]
380 | O=C(O)CCCNc1ccc2c(C(=O)NCC(c3cnc(C(F)(F)F)nc3)N3CCOCC3)c(Cl)ccc2n1 (centres unmarked) [Compound 463]
22.4 | O=C(NCC(c1cnc(C(F)(F)F)nc1)N1CCC(F)(F)CC1)c1c(Cl)ccc2nc(NC3CCOCC3)ccc12 (centres unmarked) [Compound 468]
2.45 | CNc1ccc2c(C(=O)NCC(c3cnc(C(F)(F)F)nc3)N3CCC(F)(F)CC3)c(Cl)ccc2n1 (centres unmarked) [Compound 492]
7.41 | O=C(NCC(c1cnc(C(F)(F)F)nc1)N1CCC(F)(F)CC1)c1c(Cl)ccc2nc(NCCO)ccc12 (centres unmarked) [Compound 495]
6.61 | CC(C)Nc1ccc2c(C(=O)NCC(c3cnc(C(F)(F)F)nc3)N3CCOCC3)c(Cl)ccc2n1 (centres unmarked) [Compound 496]
6.17 | O=C(NCC(c1cnc(C(F)(F)F)nc1)N1CCOCC1)c1c(Cl)ccc2nc(NCC3CC3)ccc12 (centres unmarked) [Compound 497]
9.12 | O=C(NCC(c1cnc(C(F)(F)F)nc1)N1CCOCC1)c1c(Cl)ccc2nc(NCCO)ccc12 (centres unmarked) [Compound 498]
20.9 | O=C(NCC(c1cnc(C(F)(F)F)nc1)N1CCOCC1)c1c(Cl)ccc2nc(N3CC[C@@H](O)C3)ccc12 (some centres unmarked) [Compound 499]
10.2 | CNc1ccc2c(C(=O)NCC(c3cnc(C(F)(F)F)nc3)N3CCOCC3)c(Cl)ccc2n1 (centres unmarked) [Compound 500]
10.2 | O=C(NCC(c1cnc(C(F)(F)F)nc1)N1CCOCC1)c1c(Cl)ccc2nc(NC3CC3)ccc12 (centres unmarked) [Compound 501]

The remaining lines, values behind:

SMILES | IC50 [nM]
N[C@@H]1CCCN(c2ccc3c(C(=O)NCC(c4cnc(C(F)(F)F)nc4)N4CCC(F)(F)CC4)c(Cl)ccc3n2)C1 (some centres unmarked) [Compound 423] | 1.12
N[C@H]1CCCN(c2ccc3c(C(=O)NCC(c4cnc(C(F)(F)F)nc4)N4CCC(F)(F)CC4)c(Cl)ccc3n2)C1 (some centres unmarked) [Compound 424] | 2.24
O=C(NCC(c1cnc(C(F)(F)F)nc1)N1CCC(F)(F)CC1)c1c(Cl)ccc2nc(N3CCN(C4CC4)CC3)ccc12 (centres unmarked) [Compound 425] | 6.31
CC(C)CN1CCN(c2ccc3c(C(=O)NCC(c4cnc(C(F)(F)F)nc4)N4CCC(F)(F)CC4)c(Cl)ccc3n2)CC1 (centres unmarked) [Compound 426] | 5.75
CC(C)N1CCN(c2ccc3c(C(=O)NCC(c4cnc(C(F)(F)F)nc4)N4CCC(F)(F)CC4)c(Cl)ccc3n2)CC1 (centres unmarked) [Compound 427] | 3.39
CCN1CCN(c2ccc3c(C(=O)NCC(c4cnc(C(F)(F)F)nc4)N4CCC(F)(F)CC4)c(Cl)ccc3n2)CC1 (centres unmarked) [Compound 428] | 3.24
CC1CN(c2ccc3c(C(=O)NCC(c4cnc(C(F)(F)F)nc4)N4CCOCC4)c(Cl)ccc3n2)CC(C)N1 (centres unmarked) [Compound 436] | 31.6
O=C(NCC(c1cnc(C(F)(F)F)nc1)N1CCOCC1)c1c(Cl)ccc2nc(N3CCC4(CC3)OCCCO4)ccc12 (centres unmarked) [Compound 441] | 24.5
O=C(NCC(c1cnc(C(F)(F)F)nc1)N1CCOCC1)c1c(Cl)ccc2nc(N3CCC(N4CCCC4=O)CC3)ccc12 (centres unmarked) [Compound 442] | 224
CC(=O)N1C[C@H]2CC[C@@H]1N(c1ccc3c(C(=O)NCC(c4cnc(C(F)(F)F)nc4)N4CCOCC4)c(Cl)ccc3n1)C2 (some centres unmarked) [Compound 443] | 282
O=C(NCC(c1cnc(C(F)(F)F)nc1)N1CCOCC1)c1c(Cl)ccc2nc(N3CCC(c4n[nH]c(=O)[nH]4)CC3)ccc12 (centres unmarked) [Compound 445] | 23.4
O=C(NCC(c1cnc(C(F)(F)F)nc1)N1CCOCC1)c1c(Cl)ccc2nc(N3CCC(n4cn[nH]c4=O)CC3)ccc12 (centres unmarked) [Compound 446] | 34.7
CC(=O)N1C[C@@H]2C[C@H]1N(c1ccc3c(C(=O)NCC(c4cnc(C(F)(F)F)nc4)N4CCOCC4)c(Cl)ccc3n1)C2 (some centres unmarked) [Compound 461] | 107
O=C(NCC(c1cnc(C(F)(F)F)nc1)N1CCOCC1)c1c(Cl)ccc2nc(N3CCC(C(=O)O)CC3)ccc12 (centres unmarked) [Compound 464] | 117
O=C(NCC(c1cnc(C(F)(F)F)nc1)N1CCC(F)(F)CC1)c1c(Cl)ccc2nc(N3CC(O)C3)ccc12 (centres unmarked) [Compound 465] | 7.76
O=C(NCC(c1cnc(C(F)(F)F)nc1)N1CCC(F)(F)CC1)c1c(Cl)ccc2nc(N3CCCOCC3)ccc12 (centres unmarked) [Compound 466] | 8.13
CCC(C)Nc1ccc2c(C(=O)NCC(c3cnc(C(F)(F)F)nc3)N3CCC(F)(F)CC3)c(Cl)ccc2n1 (centres unmarked) [Compound 467] | 6.92
O=C(NCC(c1cnc(C(F)(F)F)nc1)N1CCC(F)(F)CC1)c1c(Cl)ccc2nc(N3CC[C@@H](O)C3)ccc12 (some centres unmarked) [Compound 484] | 7.76
O=C(NCC(c1cnc(C(F)(F)F)nc1)N1CCC(F)(F)CC1)c1c(Cl)ccc2nc(N3CCNCC3)ccc12 (centres unmarked) [Compound 485] | 2.24
CC(C)Nc1ccc2c(C(=O)NCC(c3cnc(C(F)(F)F)nc3)N3CCC(F)(F)CC3)c(Cl)ccc2n1 (centres unmarked) [Compound 491] | 3.8
O=C(NCC(c1cnc(C(F)(F)F)nc1)N1CCC(F)(F)CC1)c1c(Cl)ccc2nc(NC3CC3)ccc12 (centres unmarked) [Compound 493] | 8.71
C[C@@H]1CN(c2ccc3c(C(=O)NCC(c4cnc(C(F)(F)F)nc4)N4CCC(F)(F)CC4)c(Cl)ccc3n2)C[C@H](C)O1 (some centres unmarked) [Compound 494] | 14.1
